# According to patent US20090215853A1, “Flavopereirine and alstonine combinations in the treatment and prevention of prostate cancer” (Natural Source International, priority 2004, published 2009):
# What was measured:
# [1] = tested on: LNCaP cells; assay: Induction of apoptosis in LNCaP cells (PARP cleavage, Caspase-3 activity); format: cell-based, human; settings: 24 hours (FIG. 2)
# [2] = tested on: normal DNA; settings: Oncotest; cited from earlier work
Structure (SMILES),apoptosis as determined by cleavage of PARP and induction of Caspase-3 [1],effect on normal DNA [2]
CCc1ccc2c3[nH]c4ccccc4c3cc[n+]2c1 [flavopereirine],induction of apoptosis,no effect on normal DNA
COC(=O)C1=CO[C@@H](C)[C@@H]2Cn3ccc4c5ccccc5nc-4c3C[C@H]12 [alstonine],relatively minor effect,no effect on normal DNA
